Test results reported in a polymer gas permeability compilation.

SMILES	CH4 permeability [Barrer]	CO2 permeability [Barrer]	H2 permeability [Barrer]	N2 permeability [Barrer]	O2 permeability [Barrer]
*Oc1ccc(C(C)(C)c2ccc(Oc3ccc(S(=O)(=O)c4ccc(*)cc4)cc3)c(C)c2)cc1C (repeat unit)	0.07	2.1	11	0.091	0.64
*C1C2CC(CF)C(C2)C1* (repeat unit)	13	200	166	17	50
*c1cccc(C(c2cccc(N3C(=O)c4ccc(C(=O)c5ccc6c(c5)C(=O)N(*)C6=O)cc4C3=O)c2)(C(F)(F)F)C(F)(F)F)c1 (repeat unit)	0.014	1.05	–	–	–
